This note sets out measurements from ChEMBL document CHEMBL1201862, “PubChem BioAssay data set” (2004).

Structures are written as SMILES.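 All cell lines were grown in 96-well plates and treated with compound for 48 hours. GI50 = concentration required for 50% inhibition of growth.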 Active and inactive are the calls of the source. No stated cut-off is given here; in the data, active = GI50 up to about 1.1 µM and inactive = higher.

Assay in all cases: NCI tumour cell line growth inhibition, 48 h
In assay [1] the test system is DU-145.
In assay [2] the test system is MDA-MB-231.
In assay [3] the test system is NCI-H460.
Assay [4] relates to SF-539.
The test system of assay [5] is OVCAR-4.
For assay [6], the system named is HCT-116.
Assay [7] deals with T47D.
Assay [8] deals with ACHN.
For assay [9], the system named is NCI-H522.
In assay [10] the test system is SN12C.
For assay [11], the system named is IGROV-1.
Assay [12] relates to HT-29.
The test system of assay [13] is BT-549.
The subject of assay [14] is RPMI-8226.
For assay [15], the system named is U-251.
The subject of assay [16] is SF-295.
In assay [17] the test system is M14.
In assay [18] the test system is HOP-62.
For assay [19], the system named is SK-MEL-2.
In assay [20] the test system is RXF 393.

As for `CC1=C(C(=O)NNC(=O)c2ccccc2O)CC(C(=O)NNC(=O)c2ccccc2O)=C(C)N1`, the GI50 in [1] is 0.566 µM (active); in assay [2], 5 µM (inactive); in assay [3], 0.533 µM (active); in [4], 0.796 µM (active); in assay [5] it was 9.4 µM (inactive); in [6] it was 0.435 µM (active). Further, the GI50 in assay [7] was 0.498 µM (active); in assay [8], 0.424 µM (active); in [9], 2.72 µM (inactive); in assay [10], 5.83 µM (inactive); in assay [11], 0.302 µM (active); in [12], 7.93 µM (inactive). Moreover, the GI50 in assay [13] was 0.446 µM (active); in assay [14], 0.752 µM (active); in assay [15], 0.459 µM (active); in assay [16], 0.535 µM (active); in [17] it was 2.22 µM (inactive); in assay [18], 5.46 µM (inactive).

`CCCCNC(=S)N/N=C/c1cccc(C)n1`: the GI50 in [1] was 83.2 µM (inactive); in [2], 35.7 µM (inactive); in [3], 32.4 µM (inactive); in assay [4], 29.7 µM (inactive); in [5], 55.1 µM (inactive); in assay [6] it was 20.7 µM (inactive). In addition, the GI50 was 26 µM (inactive) in assay [7]; 23 µM (inactive) in assay [8]; 18.6 µM (inactive) in assay [9]; 30.1 µM (inactive) in assay [10]; 58.3 µM (inactive) in assay [11]; > 10 µM (inactive) in [12]. Moreover, the GI50 in assay [13] is 49.4 µM (inactive); in assay [14], 25.5 µM (inactive); in assay [15] it was 44.2 µM (inactive); in assay [16], 33.2 µM (inactive); in assay [17], 25.1 µM (inactive); in assay [18] it was 23.9 µM (inactive).

Consider `C/C(=N/NC(=S)Nc1cccc(C)c1)c1ccccn1`, for which the GI50 in assay [1] was 2.19 µM (inactive); in assay [2] it was < 0.01 µM (active); in [3], 0.284 µM (active); in [4], 1.57 µM (inactive); in assay [5], 1.98 µM (inactive); in assay [19], 1.68 µM (inactive). Moreover, the GI50 is < 0.01 µM (active) in assay [6]; < 0.0481 µM (active) in assay [8]; 0.238 µM (active) in [9]; 0.226 µM (active) in assay [10]; < 0.01 µM (active) in [11]; < 0.01 µM (active) in [12]. Further, the GI50 in assay [13] was 3.87 µM (inactive); in assay [14] it was < 0.01 µM (active); in assay [20] it was 1.12 µM (inactive); in assay [15] it was 0.0208 µM (active); in assay [16], 0.296 µM (active); in assay [17] it was < 0.013 µM (active). In addition, the GI50 in [18] was 0.0341 µM (active).

As for `CCOc1ccc2nc(NC(=O)C(=O)C(c3cnc4ccccc4n3)[N+](=O)[O-])sc2c1` (stereo not drawn), the GI50 in [2], in [3], in assay [4], in assay [5], in assay [19] and in [6] was > 100 µM (inactive) throughout. For the same compound, the GI50 was > 100 µM (inactive) in [7]; 43.8 µM (inactive) in assay [8]; 45.4 µM (inactive) in [9]; > 100 µM (inactive) in assay [10]; 41.4 µM (inactive) in [11]; > 100 µM (inactive) in [12]. Further, the GI50 is > 100 µM (inactive) in assay [13]; 61.5 µM (inactive) in assay [14]; > 100 µM (inactive) in assay [20]; > 100 µM (inactive) in assay [16]; > 100 µM (inactive) in [17]; > 100 µM (inactive) in [18].

As to `Cc1c(Br)c(Br)c(C)[s+]1[O-]`, the GI50 was 22.9 µM (inactive) in [2]; 14.6 µM (inactive) in assay [3]; 5.38 µM (inactive) in [4]; 26.2 µM (inactive) in [5]; 13.3 µM (inactive) in assay [19]; 6 µM (inactive) in assay [6]. For the same compound, the GI50 in assay [7] was 34.9 µM (inactive); in assay [8], 19 µM (inactive); in assay [9] it was 8.02 µM (inactive); in assay [10], 11.8 µM (inactive); in assay [11], 26.7 µM (inactive); in assay [12], 15.4 µM (inactive). Further, the GI50 in assay [13] is 16.3 µM (inactive); in [14], 3.8 µM (inactive); in [15], 11.6 µM (inactive); in assay [16], 20 µM (inactive); in assay [17], 13.4 µM (inactive); in [18], 15.6 µM (inactive).

As for `O=C(O)CN(CC(=O)O)Cc1cc(C#Cc2ccc(C#Cc3ccccc3)cc2)cc(CN(CC(=O)O)CC(=O)O)n1`, the GI50 in assay [1] is 17.3 µM (inactive); in assay [2], 7.11 µM (inactive); in assay [3] it was 17.7 µM (inactive); in [4], 20.7 µM (inactive); in assay [5], 10.2 µM (inactive); in assay [19], 29.2 µM (inactive). Moreover, the GI50 in assay [6] is 8.87 µM (inactive); in assay [8] it was 32 µM (inactive); in [9], 17.2 µM (inactive); in assay [10] it was 19.7 µM (inactive); in assay [11], 18.7 µM (inactive); in assay [12] it was 12.9 µM (inactive). Further, the GI50 in assay [13] is 12.3 µM (inactive); in [14], 17.1 µM (inactive); in [20] it was 15.7 µM (inactive); in assay [15], 5.11 µM (inactive); in assay [16], 27.4 µM (inactive); in [17], 22.9 µM (inactive). The GI50 in assay [18] was 18.4 µM (inactive).

In the case of `CC1(C)N=C2C(=O)c3c([nH]c4ccccc34)[C@]3(C)CCC1CC23` (stereo partly drawn), the GI50 in assay [1], in [2], in assay [3], in assay [4], in assay [5] and in assay [19] was > 6.25 µM (inactive) in each case. In addition, the GI50 in [6], in [8], in [9], in assay [10], in assay [11] and in assay [12] was > 6.25 µM (inactive) throughout. Moreover, the GI50 in assay [13], in [14], in assay [20], in assay [15], in assay [16] and in assay [18] was > 6.25 µM (inactive) in each case.

In the case of `C/C=C/C/C=C/CCC(=O)C1OC1C(N)=O` (stereo not drawn), the GI50 was 17.5 µM (inactive) in assay [1]; 16.5 µM (inactive) in assay [2]; 12.8 µM (inactive) in [3]; 15.2 µM (inactive) in assay [4]; 11.6 µM (inactive) in [5]; 18.6 µM (inactive) in assay [19]. Further, the GI50 in assay [6] is 15 µM (inactive); in assay [8] it was 15.2 µM (inactive); in [9], 12.4 µM (inactive); in assay [10], 19 µM (inactive); in [11], 16.4 µM (inactive); in assay [12], 17.3 µM (inactive). Moreover, the GI50 is 12.2 µM (inactive) in assay [13]; 9.4 µM (inactive) in [20]; 16.8 µM (inactive) in assay [15]; 15 µM (inactive) in [16]; 15.8 µM (inactive) in assay [17]; 2.52 µM (inactive) in [18].

As for `S=C(N/N=C(/c1ccccc1)c1ccccn1)Nc1ccc(Cl)cc1`, the GI50 in assay [1] was 1.87 µM (inactive); in [2] it was < 0.0106 µM (active); in assay [3], 0.531 µM (active); in [4], 1.45 µM (inactive); in [5], 5.06 µM (inactive); in [19], 0.455 µM (active). Besides, the GI50 in assay [6] was < 0.0162 µM (active); in assay [8], 0.322 µM (active); in assay [9], 1.16 µM (inactive); in [10], 0.211 µM (active); in [11], 0.112 µM (active); in assay [12], 0.0998 µM (active). In addition, the GI50 in assay [13] is 3.15 µM (inactive); in [14], < 0.0221 µM (active); in [20] it was 1.85 µM (inactive); in assay [15], 0.124 µM (active); in assay [16] it was 0.627 µM (active); in assay [17], 0.03 µM (active). In addition, in assay [18], the GI50 is 1.93 µM (inactive).

For `C/C(CC(O)(/C=N/O)c1ccccc1)=N/O` (stereo not drawn), the GI50 in [2], in assay [3], in assay [4], in assay [5], in assay [19] and in assay [6] was > 100 µM (inactive) in each case. In addition, the GI50 in assay [7], in assay [8], in [9], in [10], in assay [11] and in [12] was > 100 µM (inactive) each time. For the same compound, the GI50 in assay [13], in assay [14], in assay [15], in assay [16], in assay [17] and in assay [18] was > 100 µM (inactive) in each case.

`Cc1ccc2ccccc2c1CC1S(=O)(=O)OCCOS1(=O)=O`: the GI50 in assay [1] is 11.9 µM (inactive); in assay [2], 13.6 µM (inactive); in [3], 9.57 µM (inactive); in [5], 11.2 µM (inactive); in [19], 16.7 µM (inactive); in assay [6] it was 13.1 µM (inactive). Moreover, the GI50 in assay [8] was 14.4 µM (inactive); in assay [10], 10.1 µM (inactive); in [12] it was 11.4 µM (inactive); in assay [13], 11.2 µM (inactive); in [14], 11.4 µM (inactive); in assay [15], 12 µM (inactive). In addition, the GI50 in [16] is 13.1 µM (inactive); in assay [17], 12.9 µM (inactive); in assay [18], 12.6 µM (inactive).
